{"source": "patent US10131652B2", "about": "“Pyrimidinyloxy benzene derivatives as herbicides” (E. I. DU PONT DE NEMOURS AND COMPANY, priority 2014, dated 2018)", "assay_type_in_all_cases": "in vivo", "key": {"[1]": {"system": "ducksalad (Heteranthera limosa)", "assay": "Test C flooded paddy test plant response", "settings": "Flood, 250 g ai/ha; scale of 0 to 100 where 0 is no effect and 100 is complete control; 13 to 15 days", "summary_of_the_method": "(§1)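 Flooded-pot format, 3 cm water over soil maintained for the test duration; test compounds dispensed into the water at the 2-leaf stage. Greenhouse holding 13 to 15 days. Plants evaluated visually relative to untreated controls, 0 meaning no effect and 100 complete control.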"}, "rice (Oryza sativa)": {"system": "rice (Oryza sativa)", "assay": "Test C flooded paddy test plant response", "settings": "Flood, 250 g ai/ha; scale of 0 to 100 where 0 is no effect and 100 is complete control; 13 to 15 days", "summary_of_the_method": "as §1"}, "[2]": {"system": "small-flower umbrella sedge (Cyperus difformis)", "assay": "Test C flooded paddy test plant response", "settings": "Flood, 250 g ai/ha; scale of 0 to 100 where 0 is no effect and 100 is complete control; 13 to 15 days", "summary_of_the_method": "as §1"}, "[3]": {"system": "barnyardgrass (Echinochloa crus-galli)", "assay": "Test C flooded paddy test plant response", "settings": "Flood, 250 g ai/ha; scale of 0 to 100 where 0 is no effect and 100 is complete control; 13 to 15 days", "summary_of_the_method": "as §1"}, "[4]": {"system": "galium (catchweed bedstraw, Galium aparine)", "assay": "Test B postemergence plant response", "summary_of_the_method": "(§2)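 Pots, loam soil + sand; postemergence treatment at 1–2 leaf stage, 2–10 cm; greenhouse ~10 d; visual injury score 0 (none) to 100 (complete control) relative to untreated controls.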"}, "[5]": {"system": "blackgrass (Alopecurus myosuroides)", "assay": "Test B postemergence plant response", "summary_of_the_method": "as §2"}, "kochia (Kochia scoparia)": {"system": "kochia (Kochia scoparia)", "assay": "Test B pre-/postemergence plant response", "summary_of_the_method": "(§3)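 Scoring used a 0–100 scale (100 = complete control) by visual comparison with untreated plants after approximately 10 days in the greenhouse. Compounds, in surfactant-containing non-phytotoxic solvent, were sprayed onto soil at planting or onto 2–10 cm seedlings.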"}, "[6]": {"system": "wheat (Triticum aestivum)", "assay": "Test B pre-/postemergence plant response", "summary_of_the_method": "as §3"}, "[7]": {"system": "ragweed (common ragweed, Ambrosia elatior)", "assay": "Test B pre-/postemergence plant response", "summary_of_the_method": "as §3"}, "[8]": {"system": "giant foxtail (Setaria faberii)", "assay": "Test B pre-/postemergence plant response", "summary_of_the_method": "as §3"}, "[9]": {"system": "pigweed (Amaranthus retroflexus)", "assay": "Test B pre-/postemergence plant response", "summary_of_the_method": "as §3"}, "[10]": {"system": "Italian ryegrass (Lolium multiflorum)", "assay": "Test B pre-/postemergence plant response", "summary_of_the_method": "as §3"}, "[11]": {"system": "barnyardgrass (Echinochloa crus-galli)", "assay": "Test B pre-/postemergence plant response", "summary_of_the_method": "as §3"}, "corn (Zea mays)": {"system": "corn (Zea mays)", "assay": "Test B pre-/postemergence plant response", "summary_of_the_method": "as §3"}, "[12]": {"settings": "Postemergence, 1000 g ai/ha, 0 to 100 scale (0 no effect, 100 complete control)"}, "[13]": {"settings": "Preemergence, 1000 g ai/ha, 0 to 100 scale (0 no effect, 100 complete control)"}, "[14]": {"settings": "125 g ai/ha, postemergence, 0 to 100 scale, 0 no effect, 100 complete control"}, "[15]": {"settings": "Postemergence, 31 g ai/ha, 0 to 100 scale (0 no effect, 100 complete control)"}, "[16]": {"settings": "31 g ai/ha, Preemergence, 0 to 100 scale where 0 is no effect and 100 is complete control"}, "[17]": {"settings": "Preemergence, 125 g ai/ha, 0 to 100 scale (0 no effect, 100 complete control)"}}}
{"compound": "Cc1cc(-c2ccccc2Oc2ncc(Cl)cn2)sn1", "note": "[Compound 171]", "values": [{"measurement": "Ducksalad plant response rating", "setting": "[1]", "value": 0}, {"measurement": "Rice plant response rating", "setting": "rice (Oryza sativa)", "value": 0}, {"measurement": "Sedge, Umbrella plant response rating", "setting": "[2]", "value": 0}, {"measurement": "Barnyardgrass plant response rating", "setting": "[3]", "value": 0}, {"measurement": "Plant response rating, Galium", "setting": "[4]; [12]", "value": 100}, {"measurement": "Plant response rating, Blackgrass", "setting": "[5]; [12]", "value": 80}, {"measurement": "Plant response rating, Kochia", "setting": "kochia (Kochia scoparia); [12]", "value": 100}, {"measurement": "Plant response rating, Kochia", "setting": "kochia (Kochia scoparia); [13]", "value": 90}, {"measurement": "Plant response rating, Wheat", "setting": "[6]; [12]", "value": 30}, {"measurement": "Plant response rating, Ragweed", "setting": "[7]; [12]", "value": 30}, {"measurement": "Plant response rating, Ragweed", "setting": "[7]; [13]", "value": 0}, {"measurement": "Plant response rating, Foxtail, Giant", "setting": "[8]; [12]", "value": 100}, {"measurement": "Plant response rating, Foxtail, Giant", "setting": "[8]; [13]", "value": 100}, {"measurement": "Plant response rating, Pigweed", "setting": "[9]; [12]", "value": 100}, {"measurement": "Plant response rating, Pigweed", "setting": "[9]; [13]", "value": 100}, {"measurement": "Plant response rating, Ryegrass, Italian", "setting": "[10]; [12]", "value": 10}, {"measurement": "Plant response rating, Ryegrass, Italian", "setting": "[10]; [13]", "value": 10}, {"measurement": "Plant response rating, Barnyardgrass", "setting": "[11]; [12]", "value": 30}, {"measurement": "Plant response rating, Barnyardgrass", "setting": "[11]; [13]", "value": 70}, {"measurement": "Plant response rating, Corn", "setting": "corn (Zea mays); [12]", "value": 10}]}
{"compound": "Cc1cnc(Oc2ccccc2-c2cc(C(C)(F)F)on2)nc1", "note": "[Compound 173]", "values": [{"measurement": "Ducksalad plant response rating", "setting": "[1]", "value": 80}, {"measurement": "Rice plant response rating", "setting": "rice (Oryza sativa)", "value": 0}, {"measurement": "Sedge, Umbrella plant response rating", "setting": "[2]", "value": 60}, {"measurement": "Barnyardgrass plant response rating", "setting": "[3]", "value": 0}, {"measurement": "Plant response rating, Galium", "setting": "[4]; [14]", "value": 90}, {"measurement": "Plant response rating, Galium", "setting": "[4]; [15]", "value": 50}, {"measurement": "Plant response rating, Blackgrass", "setting": "[5]; [14]", "value": 70}, {"measurement": "Plant response rating, Blackgrass", "setting": "[5]; [15]", "value": 30}, {"measurement": "Plant response rating, Kochia", "setting": "kochia (Kochia scoparia); [16]", "value": 70}, {"measurement": "Plant response rating, Kochia", "setting": "kochia (Kochia scoparia); [14]", "value": 100}, {"measurement": "Plant response rating, Kochia", "setting": "kochia (Kochia scoparia); [15]", "value": 70}, {"measurement": "Kochia plant response rating", "setting": "kochia (Kochia scoparia); [17]", "value": 100}, {"measurement": "Plant response rating, Wheat", "setting": "[6]; [14]", "value": 0}, {"measurement": "Plant response rating, Wheat", "setting": "[6]; [15]", "value": 0}, {"measurement": "Plant response rating, Ragweed", "setting": "[7]; [16]", "value": 10}, {"measurement": "Plant response rating, Ragweed", "setting": "[7]; [14]", "value": 60}, {"measurement": "Plant response rating, Ragweed", "setting": "[7]; [15]", "value": 40}, {"measurement": "Ragweed plant response rating", "setting": "[7]; [17]", "value": 70}, {"measurement": "Plant response rating, Foxtail, Giant", "setting": "[8]; [16]", "value": 50}, {"measurement": "Plant response rating, Foxtail, Giant", "setting": "[8]; [14]", "value": 90}, {"measurement": "Plant response rating, Foxtail, Giant", "setting": "[8]; [15]", "value": 30}, {"measurement": "Foxtail, Giant plant response rating", "setting": "[8]; [17]", "value": 100}, {"measurement": "Plant response rating, Pigweed", "setting": "[9]; [16]", "value": 80}, {"measurement": "Plant response rating, Pigweed", "setting": "[9]; [14]", "value": 80}, {"measurement": "Plant response rating, Pigweed", "setting": "[9]; [15]", "value": 60}, {"measurement": "Pigweed plant response rating", "setting": "[9]; [17]", "value": 100}, {"measurement": "Plant response rating, Ryegrass, Italian", "setting": "[10]; [16]", "value": 0}, {"measurement": "Plant response rating, Ryegrass, Italian", "setting": "[10]; [14]", "value": 20}, {"measurement": "Plant response rating, Ryegrass, Italian", "setting": "[10]; [15]", "value": 0}, {"measurement": "Ryegrass, Italian plant response rating", "setting": "[10]; [17]", "value": 20}, {"measurement": "Plant response rating, Barnyardgrass", "setting": "[11]; [16]", "value": 60}, {"measurement": "Plant response rating, Barnyardgrass", "setting": "[11]; [14]", "value": 70}, {"measurement": "Plant response rating, Barnyardgrass", "setting": "[11]; [15]", "value": 30}, {"measurement": "Barnyardgrass plant response rating", "setting": "[11]; [17]", "value": 90}, {"measurement": "Plant response rating, Corn", "setting": "corn (Zea mays); [14]", "value": 40}, {"measurement": "Plant response rating, Corn", "setting": "corn (Zea mays); [15]", "value": 10}]}
